Source: BindingDB's records for doi:10.1016/j.bmcl.2003.11.033 (University of California, 2004)

Target: Tyrosinase (Agaricus bisporus)
Experiment: Inhibitory activity was evaluated against the oxidation of L-3,4-dihydroxyphenylalanine (L-DOPA) catalyzed by mushroom tyrosinase

IC50: 30 µM
Structure (SMILES): COc1ccc(C=O)c(O)c1 [2-hydroxy-4-methoxybenzaldehyde]
